{"source": "patent US20150306107A1", "about": "“SAA Derivative Compound Restores eNOS And Inhibits Oxidative Stress-Induced A Diseases In Hypoxia” (JANSFAT BIOTECHNOLOGY CO., LTD., priority 2014, published 2015)", "key": {"eNOS [1]": {"test_system": "eNOS", "test": "Western blotting of eNOS in lung tissue after long-term hypoxia", "type": "in vivo, rat", "conditions": "hypoxia 21 days; compared to normoxia control"}, "hypoxic rats [2]": {"test_system": "hypoxic rats", "test": "Right ventricular hypertrophy (RV/LV+S, right heart index) after long-term hypoxia", "type": "in vivo, rat", "description": "(§1) The right lobes of the rat lungs and heart of six rats from each group were cut and soaked in formalin, dehydrated through graded alcohols, and embedded in paraffin wax. The lung tissue specimens fixed with formalin (4%) were embedded in paraffin for one hour at 4° C., cut into 4-μm-thick sections, and subjected to H&E staining before examination by light microscope. In our histopathological study, we measured the thickening of the medial wall of the small intrapulmonary arteries under an Eclipse TE2000-S (Nikon) microscope. In the heart tissues, the 4-μm-thick paraffin sections were cut from paraffin-embedded tissue blocks and de-paraffinized by immersion in xylene and rehydrated as previously described (Bivalacqua T J, et al., PLoSONE 8: e68028. doi:10.1371/journal. pone.0068028). The slices were then dyed with H&E. After gently rinsing with water, each slide was dehydrated through graded alcohols and finally soaked in xylene twice. The relative cardiac weight of right ventricle (RV)/[left ventricle (LV)+intraventricular septum (S)] ratio (i.e. right heart index) was calculated using right ventricle/left ventricle+septum (RV/LV+S). Measurements were obtained with Histolab software (Microvision Instruments, Evry, France)."}, "eNOS [3]": {"test_system": "eNOS", "test": "Western blotting of eNOS expression in isolated rat pulmonary artery ring, short-term (acute) hypoxia or normoxia", "type": "cell-based", "how_it_was_run": "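Isolated rat (male Wistar) pulmonary artery kept under normoxia (20% O2) or hypoxia (1% O2) at 37° C. for 24 hrs. Protein extracted, resolved on 10% SDS-PAGE ([…]), blotted to PVDF, probed with specific antibodies and ECL-detected, β-actin as loading control.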"}, "PDE5A": {"test_system": "PDE5A", "conditions": "hypoxia 21 days; % of the normal level; hypoxia 43.8±12.6%"}, "hypoxic rats [4]": {"test_system": "hypoxic rats", "test": "Pulmonary artery wall thickness and muscularization (HE staining) after long-term hypoxia", "type": "in vivo, rat", "description": "as §1"}, "ROCK II": {"test_system": "ROCK II", "test": "Western blotting of ROCK II in lung tissue after long-term hypoxia", "type": "in vivo, rat", "conditions": "hypoxia 21 days; hypoxia 144.7±12.6%"}}, "data": [{"smiles": "Cn1c(=O)c2c(ncn2CCN2CCN(c3ccccc3Cl)CC2)n(C)c1=O.O=C1O[C@H]([C@@H](O)CO)C(O)=C1O", "note": "[SPAAX-1 ascorbate complex, 7-[2-[4-(2-chlorobenzene)piperazinyl]ethyl]-1,3-dimethylxanthine.ascorbic acid]", "values": [{"measurement": "eNOS expression in lung tissue", "setting": "eNOS [1]", "result": "139.7±16.9", "unit": "%"}, {"measurement": "thickness of Right ventricular", "setting": "hypoxic rats [2]; compared to the hypoxia state", "result": "reduced"}, {"measurement": "right heart index, RV/(LV+S) weight ratio", "setting": "hypoxic rats [2]; hypoxia 21 days, relative to normoxia rats, hypoxia 184.6±0.7%", "result": "117.4±2.6", "unit": "%"}, {"measurement": "eNOS in isolated hypoxic pulmonary artery", "setting": "eNOS [3]; hypoxia for 24 hrs, versus control level in normoxia, hypoxia 60±8.3%", "result": "45±3.0", "unit": "%"}, {"measurement": "eNOS in acute hypoxia", "setting": "eNOS [3]; isolated pulmonary artery, acute hypoxia", "result": "restored"}, {"measurement": "expression of eNOS in isolated pulmonary artery ring", "setting": "eNOS [3]; normoxia for 24 hrs, 10 μm, versus non-treated controls", "result": "117.9±9.1", "unit": "%"}, {"measurement": "PDE5A expression in lung tissue", "setting": "PDE5A", "result": "76.9±4.9", "unit": "%"}, {"measurement": "Small pulmonary arterial morphology (<150 μm)", "setting": "hypoxic rats [4]; hypoxia 21 days, 5 mg/kg/day", "result": "highly improved"}, {"measurement": "hypoxia-induced pulmonary artery wall thickness", "setting": "hypoxic rats [4]; hypoxia 21 days, 5 mg/kg/day, hypoxia 165.8±5.4%", "result": "inhibited"}, {"measurement": "muscularizations of distal pulmonary artery (HE staining)", "setting": "hypoxic rats [4]; hypoxic rats, versus vehicle only", "result": "significantly lower"}, {"measurement": "ROCKII expression in lung tissue", "setting": "ROCK II", "result": "50.32±7.9", "unit": "%"}]}]}
